Data: patent US11655210B2, “Compound for improving L-arginine bioavailability” (The General Hospital Corporation, priority 2018, dated 2023)
Where two headings read alike, the source gives them in different places.

What was measured:
[1] = system: Human Brain Microvascular Endothelial Cells (HBMVEC); test: CellTox Green 24-hour dose dependent cytotoxicity assay; type: cell-based; settings: for toxicity in the cellular model: 100 nM, 10 μM, 100 μM, 0.5 mM
Experimental: Cell cultures were prepared using the following general procedures.
1. Under aseptic conditions 1×20 mm sterile tissue culture dish was coated with sterile 1:100 collagen for two hours at room temperature.
2. Under aseptic conditions 2× sterile 96 well-plates were coated with sterile 50 μL 1:100 collagen for two hours at room temperature.
3. After 2 hr collagen was recollected into 50 mL conical tube.
4. The petri dish and 2×96 well-plates were washed with warmed PBS.
5. Once 60% confluency of HBMVEC was observed, the plate was prepped for passage.
6. Media was aspirated from dish and washed with 1×PBS.
7. 1 mL of Trypsin was added, and the plate was transferred to 37° C. incubator for 1-2 min until cells appeared detached.
8. The plate was transferred back into sterile conditions and 2 mL of EndoGro Basal Media was added to inhibit Trypsin reaction.
9. Cells were pipetted 20× and thoroughly mixed before transferring into 25 mL of EndoGro Basal Media.
10. 100 μL of this mixture was added into each well both 96 well-plate.
11. Left over 5.8 mL of cell solution was transferred to petri dish previously coated with collagen and washed with 1×PBS.
12. Plates were incubated for 48 hours at 37° C.
The following procedures were performed for the cell cytotoxicity assay (CellTox™ Green Cytotoxicity Assay; Promega Corporation). See also CellTox™ Green Cytotoxicity Assay, Instructions for Use of Products G8741, G8742, G8743, and G8731, revised May 2015, the disclosure of which is incorporated herein by reference in its entirety.
1. Samples containing 1:1000 L-Arginine (L-Arg; 100 nM, 10 μM, 100 μM, or 0.5 mL) or 1:1000 of 2-amino-5-guanidino-N-(4-guanidinobutyl)pentanamide (Example 1; 100 nM, 10 μM, 100 μM, or 0.5 mL) were prepared with EndoGro Basal Media without supplements (MWOS) into sterile 10×1 mL microcentrifuge tubes. For concentrations of 0, 1:1000 PBS to MWOS was made.
2. […]
4. Once the wells were treated, plates were incubated at 37° C. for 24 hours and analyzed at 485-500 nm/520-530 nm after cytotoxicity assay treatment.

[2] = system: NO production in Human Brain Microvascular Endothelial Cells (HBMVEC); test: In vitro NO detection assay (Nitric Oxide Cell-Based HTS Assay); settings: 100 nM to 0.5 mM, analyzed every 15 mins for 1 h, Example 1 versus L-arginine, FIGS. 3-4
Experimental: “A” Bars: […]; “B” bars: 10 μM; “C” bars: 100 μM; “D” bars: 0.5 mM.
The following general procedures were performed for the NO detection assay. See, e.g., Nitric Oxide Cell-Based HTS Assay Kit technical data sheet, Biovision Incorporated; Catalog #K979-10, September 2016, the disclosure of which is incorporated herein by reference in its entirety.
1. Performed cell culture protocol as described in Example 2.
2. Warmed all reagents in 37° C. water bath.
3. Master mix: 3 μL dye to 1.5 mL of Assay buffer for at least 60 wells.
4. Standard curve master mix: 5 μL NO stock solution to 95 μL NO Buffer for at least 60 wells.
5. Media was aspirated from column 1B-1G before aliquoting standard curve solution, as shown below in Table 2.
6. Media was aspirated from 2B-2G through 6B-G before 50 μL aliquots of staining dye. This step was repeated for […] through 10B-10G.
7. Plates were incubated for 1 hour in 37° C.
8. After 1 hour, plates were transferred back into sterile conditions and washed 2× with EndoGro Media (previously warmed to 37° C.) before aliquoting the concentrations shown in Table 3 into each well.
9. Plates were incubated at 37° C. and analyzed every 15 mins for 1 h.

[3] = cited from earlier work; for baseline plasma concentration of L-arginine: normal diet over 8 hours

| Compound | toxicity in the cellular model [1] | toxicity in comparison to L-arginine ([1]; FIG. 2) | capacity for mediating NO production [2] | baseline plasma concentration of L-arginine ([3]; converted value) [µM] | baseline plasma concentration of L-arginine [3] | peak concentration ([3]; single oral 10 g dose, converted value) [µM] | absolute bioavailability ([3]; single oral 10 g dose) | peak concentration ([3]; single oral 10 g dose) [µg/mL] | time of peak concentration after administration ([3]; single oral 10 g dose) [h] |
| --- | --- | --- | --- | --- | --- | --- | --- | --- | --- |
| N=C(N)NCCCCNC(=O)C(N)CCCNC(=N)N (centres unmarked) [Example 1, 2-amino-5-guanidino-N-(4-guanidinobutyl)pentanamide] | non-toxic | no significant difference in toxicity | nearly identical capacity for mediating NO production | – | – | – | – | – | – |
| N=C(N)NCCC[C@H](N)C(=O)O [L-arginine] | non-toxic | – | nearly identical capacity for mediating NO production | ~86.7 | about 15.1±2.6 μg/mL | ~287.0 | about 20% | 50.0 | 1 |
